According to patent US6339045B1, “N-(unsubstituted or substituted)-4-substituted-6-(unsubstituted or substituted)phenoxy-2-pyridinecarboxamides or thiocarboxamides, processes for producing the same, and herbicides” (Kureha Kagaku Kogyo Kabushiki Kaisha, priority 1995, dated 2002):

What was measured:
Assay in all cases: Herbicidal effect by foliage and soil treatment
Assay type in all cases: in vivo
Conditions in all cases: 10 g ai/10a, evaluated after 14 days
[1] = system: black nightshade (Solanum nigrum)
Source text: (§1) Experiment for Determination of Herbicidal Effect by Foliate and Soil Treatment Seeds of redroot pigweed (Amaranthus retroflexus), common blackjack (Bidens pilosa), kediock (Sinapis arvensis), common chickweed (Stellaria media), sicklepod (Cassia obtusifolia), black nightshade (Solanum nigrum), velvetleaf (Abutilon theophrasti), field bindweed (Convolvulus arvensis), wild chamomile (Matricaria chamomilla), cleavers (Galium aparine) and […] (Veronica hederaefolia), were uniformly sowed over a horticultural granular soil (produced by KUREHA CHEMICAL INDUSTRY, CO., LTD.; the same soil was used hereinafter) filled in a planter. The planter was placed in a greenhouse (maintained at 19 to 25° C.) to sprout these plants. Two seedlings of each sprouted plant were transplanted to a 10 cm-diameter pot filled with the horticultural granular soil and cultivated in the greenhouse (maintained at 19 to 25° C.) until reaching a cotyledonal to bifoliate period suited to the foliage and soil treatment. […] Next, additional amounts of Tween 20 and water were added to the obtained solution or suspension to produce a test solution. The plants prepared in the above (1) were placed within a frame having a predetermined inside area, and uniformly sprayed with the test solution using a sprayer such that the amount of each compound applied was controlled to a predetermined level. The plants sprayed with the test solution were placed again in the greenhouse (maintained at 19 to 25° C.) and cultivated therein. After 14 days, the degree of growth of each plant cultivated in the treated region was compared with that of plant cultivated in non-treated region, and evaluated according to the following ratings. The herbicidal activity of each test compound was represented by these ratings

[2] = system: cleavers (Galium aparine)
Source text: as §1

[3] = system: common blackjack (Bidens pilosa)
Source text: as §1

[4] = system: common chickweed (Stellaria media)
Source text: as §1

[5] = system: field bindweed (Convolvulus arvensis)
Source text: as §1

[6] = system: ivyleafspeedwell (Veronica hederaefolia)
Source text: as §1

[7] = system: kediock (Sinapis arvensis)
Source text: as §1

[8] = system: redroot pigweed (Amaranthus retroflexus)
Source text: as §1

[9] = system: sicklepod (Cassia obtusifolia)
Source text: as §1

[10] = system: velvetleaf (Abutilon theophrasti)
Source text: as §1

[11] = system: wild chamomile (Matricaria chamomilla)
Source text: as §1

Q: Which results are given for `COc1cc(Oc2cccc(C(F)(F)F)c2)nc(C(=O)Nc2ccccc2)c1` [Compound I-1, N-phenyl-4-methoxy-6-{3-(trifluoromethyl)phenoxy}-2-pyridine carboxamide]?
A: herbicidal activity rating, SN (Solanum nigrum) [1]: 5 (percentage of weeds killed was not less than 80%); herbicidal activity rating, GA (Galium aparine) [2]: 5 (percentage of weeds killed was not less than 80%); herbicidal activity rating, BP (Bidens pilosa) [3]: 5 (percentage of weeds killed was not less than 80%); herbicidal activity rating, SM (Stellaria media) [4]: 4 (percentage of weeds killed was not less than 60% and less than 80%); herbicidal activity rating, CA (Convolvulus arvensis) [5]: 4 (percentage of weeds killed was not less than 60% and less than 80%); herbicidal activity rating, VH (Veronica hederaefolia) [6]: 5 (percentage of weeds killed was not less than 80%); herbicidal activity rating, SA (Sinapis arvensis) [7]: 5 (percentage of weeds killed was not less than 80%); herbicidal activity rating, AR (Amaranthus retroflexus) [8]: 5 (percentage of weeds killed was not less than 80%); herbicidal activity rating, CO (Cassia obtusifolia) [9]: 5 (percentage of weeds killed was not less than 80%); herbicidal activity rating, AT (Abutilon theophrasti) [10]: 4 (percentage of weeds killed was not less than 60% and less than 80%); herbicidal activity rating, MC (Matricaria chamomilla) [11]: 4 (percentage of weeds killed was not less than 60% and less than 80%)

Q: For `COc1cc(Oc2cccc(C(F)(F)F)c2)nc(C(=O)Nc2ccc(Cl)cc2)c1` [Compound I-2], which “herbicidal activity rating, SN (Solanum nigrum)” value [1] is on record?
A: 5 (percentage of weeds killed was not less than 80%)

Q: What about the “herbicidal activity rating, GA (Galium aparine)” value [2] of the same compound?
A: 5 (percentage of weeds killed was not less than 80%)

Q: And the “herbicidal activity rating, BP (Bidens pilosa)” value [3]?
A: 5 (percentage of weeds killed was not less than 80%)

Q: What about the “herbicidal activity rating, SM (Stellaria media)” value [4] of the same compound?
A: 4 (percentage of weeds killed was not less than 60% and less than 80%)

Q: And the “herbicidal activity rating, CA (Convolvulus arvensis)” value [5]?
A: 5 (percentage of weeds killed was not less than 80%)

Q: And the “herbicidal activity rating, VH (Veronica hederaefolia)” value [6]?
A: 5 (percentage of weeds killed was not less than 80%)

Q: And the “herbicidal activity rating, SA (Sinapis arvensis)” value [7]?
A: 5 (percentage of weeds killed was not less than 80%)

Q: What about the “herbicidal activity rating, AR (Amaranthus retroflexus)” value [8] of the same compound?
A: 5 (percentage of weeds killed was not less than 80%)

Q: And the “herbicidal activity rating, CO (Cassia obtusifolia)” value [9]?
A: 5 (percentage of weeds killed was not less than 80%)

Q: And the “herbicidal activity rating, AT (Abutilon theophrasti)” value [10]?
A: 4 (percentage of weeds killed was not less than 60% and less than 80%)

Q: What about the “herbicidal activity rating, MC (Matricaria chamomilla)” value [11] of the same compound?
A: 3 (percentage of weeds killed was not less than 40% and less than 60%)

Q: With `COc1cc(Oc2cccc(C(F)(F)F)c2)nc(C(=O)Nc2ccc(F)cc2)c1` [Compound I-11] as the compound, how does the “herbicidal activity rating, SN (Solanum nigrum)” value [1] read?
A: 5 (percentage of weeds killed was not less than 80%)

Q: What about the “herbicidal activity rating, GA (Galium aparine)” value [2] of the same compound?
A: 5 (percentage of weeds killed was not less than 80%)

Q: And the “herbicidal activity rating, BP (Bidens pilosa)” value [3]?
A: 5 (percentage of weeds killed was not less than 80%)

Q: What about the “herbicidal activity rating, SM (Stellaria media)” value [4] of the same compound?
A: 4 (percentage of weeds killed was not less than 60% and less than 80%)

Q: What about the “herbicidal activity rating, CA (Convolvulus arvensis)” value [5] of the same compound?
A: 4 (percentage of weeds killed was not less than 60% and less than 80%)

Q: What about the “herbicidal activity rating, VH (Veronica hederaefolia)” value [6] of the same compound?
A: 5 (percentage of weeds killed was not less than 80%)

Q: What about the “herbicidal activity rating, SA (Sinapis arvensis)” value [7] of the same compound?
A: 5 (percentage of weeds killed was not less than 80%)

Q: And the “herbicidal activity rating, AR (Amaranthus retroflexus)” value [8]?
A: 5 (percentage of weeds killed was not less than 80%)

Q: And the “herbicidal activity rating, CO (Cassia obtusifolia)” value [9]?
A: 5 (percentage of weeds killed was not less than 80%)

Q: And the “herbicidal activity rating, AT (Abutilon theophrasti)” value [10]?
A: 3 (percentage of weeds killed was not less than 40% and less than 60%)

Q: What about the “herbicidal activity rating, MC (Matricaria chamomilla)” value [11] of the same compound?
A: 4 (percentage of weeds killed was not less than 60% and less than 80%)
